pKi: −log10 of the molar value.
What was measured:
[1] = molecular target: T1, human recombinant A2B adenosine receptor (Homo sapiens, UniProt P29275); test: cAMP assay in CHO hA2B; format: cell-based; settings: percentage given after the > bound; meaning not defined in the patent
T1 sequence (P29275 1-332): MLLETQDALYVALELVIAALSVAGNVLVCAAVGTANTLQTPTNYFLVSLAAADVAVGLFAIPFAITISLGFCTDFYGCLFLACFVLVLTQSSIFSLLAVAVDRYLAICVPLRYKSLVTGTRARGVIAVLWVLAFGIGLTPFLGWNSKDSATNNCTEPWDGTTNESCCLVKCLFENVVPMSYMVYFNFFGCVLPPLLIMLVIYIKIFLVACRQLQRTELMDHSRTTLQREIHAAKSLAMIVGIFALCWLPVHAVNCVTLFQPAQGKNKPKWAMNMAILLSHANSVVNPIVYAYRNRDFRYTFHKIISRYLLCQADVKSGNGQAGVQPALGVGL

[2] = molecular target: human recombinant A2A adenosine receptors (Homo sapiens, UniProt P29274); test: Radioligand binding to hA2A receptors expressed in CHO cells; settings: percentage given after the > bound; meaning not defined in the patent
Procedure: (§1) For membrane preparation the culture medium was removed and the cells were washed with PBS and scraped off T75 flasks in ice-cold hypotonic buffer (5 mM Tris HCl, 2 mM EDTA, pH 7.4).
(§2) The cell suspension was homogenized with Polytron and the homogenate was spun for 10 min at 1,000×g. The supernatant was then centrifuged for 30 min at 100,000×g. […] Then the suspension was frozen at −80° C.
(§3) Ki=IC50/(1+[C*]/KD*), where [C*] is the concentration of the radioligand and KD* its dissociation constant.

[3] = molecular target: T2, human recombinant A3 adenosine receptors (Homo sapiens, UniProt P0DMS8); test: [3H]-MRE 3008F20 binding to hA3 receptors expressed in CHO cells; settings: CHO cell membranes, 1 nM [3H]-MRE 3008F20; geometric mean, confidence limits in the line below; read-out: [3H] MRE3008F20 binding to hA3 receptors expressed in CHO cells Ki
T2 construct: expressed in transfected cells; host or cells: CHO cells (membranes)
T2 sequence (P0DMS8 1-318): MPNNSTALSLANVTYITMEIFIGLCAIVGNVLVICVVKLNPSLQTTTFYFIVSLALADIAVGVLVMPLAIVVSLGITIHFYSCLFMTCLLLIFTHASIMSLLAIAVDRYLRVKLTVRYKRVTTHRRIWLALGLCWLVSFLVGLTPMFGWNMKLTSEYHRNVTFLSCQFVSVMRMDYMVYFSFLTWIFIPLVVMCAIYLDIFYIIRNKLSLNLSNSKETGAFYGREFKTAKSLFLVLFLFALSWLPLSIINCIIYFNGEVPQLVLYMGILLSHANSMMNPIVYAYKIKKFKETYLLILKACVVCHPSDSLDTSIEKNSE
Procedure: as §1, §2
Non-specific binding was defined as binding in the presence of 1 μM MRE 3008F20 and was about 30% of total binding.
as §3

[4] = molecular target: T3, human recombinant A1 adenosine receptor (Homo sapiens, UniProt P30542); test: [3H]-DPCPX binding to human A1 adenosine receptor expressed in CHO cells; settings: for [3H] DPCPX binding to hA1, percentage in parentheses: percentage given after the > bound, meaning not defined in the patent
T3 sequence (P30542 1-326): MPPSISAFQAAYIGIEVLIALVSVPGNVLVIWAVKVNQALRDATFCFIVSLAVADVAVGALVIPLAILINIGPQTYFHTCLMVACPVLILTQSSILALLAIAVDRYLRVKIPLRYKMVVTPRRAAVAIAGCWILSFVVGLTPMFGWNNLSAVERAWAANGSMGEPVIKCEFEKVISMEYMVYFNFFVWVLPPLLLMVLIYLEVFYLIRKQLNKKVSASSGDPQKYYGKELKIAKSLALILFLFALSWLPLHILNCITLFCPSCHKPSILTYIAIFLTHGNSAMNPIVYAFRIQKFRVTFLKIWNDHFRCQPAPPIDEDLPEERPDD
Procedure: as §1, §2, §3

Chain of human recombinant A2A adenosine receptors (P29274 whole entry): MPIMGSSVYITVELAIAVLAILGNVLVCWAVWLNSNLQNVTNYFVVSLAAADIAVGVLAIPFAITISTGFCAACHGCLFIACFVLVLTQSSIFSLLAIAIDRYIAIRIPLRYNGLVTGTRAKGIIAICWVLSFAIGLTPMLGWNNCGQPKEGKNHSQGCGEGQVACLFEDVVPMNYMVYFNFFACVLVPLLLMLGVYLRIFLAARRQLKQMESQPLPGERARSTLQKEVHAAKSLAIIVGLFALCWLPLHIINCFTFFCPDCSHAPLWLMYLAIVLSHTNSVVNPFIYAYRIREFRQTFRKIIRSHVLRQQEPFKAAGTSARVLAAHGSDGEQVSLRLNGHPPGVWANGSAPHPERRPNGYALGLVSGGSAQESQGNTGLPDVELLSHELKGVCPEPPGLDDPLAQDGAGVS

| SMILES | cAMP assay in CHO hA22B, percentage in parentheses [1] [%] | [3H] ZM 241385 binding to hA2A receptors, percentage in parentheses [2] [%] | pKi [3] | melting point [°C] | [3H] DPCPX binding to hA1, percentage in parentheses [4] [%] | pKi ([4]; read-out: [3H] DPCPX binding to hA1, CHO cell membranes, 1 nM [3H]-DPCPX, geometric mean with confidence limits in parentheses) |
| --- | --- | --- | --- | --- | --- | --- |
| CCCn1c(=O)c2c(nc3[nH]c(C(C)(C)C)cn32)n(Cc2ccccc2)c1=O [Compound 22, 1-Benzyl-7-tert-butyl-3-propyl-1H-imidazo[1,2-f]purine-2,4(3H,8H)-dione] | 86 | 99 | 7.00 | 230 | 51 |  |
| CCCn1c(=O)c2c(nc3[nH]c(C4CC4)cn32)n(Cc2ccccc2)c1=O [Compound 23, 1-Benzyl-7-cyclopropyl-3-propyl-1H-imidazo[1,2-f]purine-2,4(3H,8H)-dione] | 79 | 98 | 7.64 | 244 to 245 |  | 6.46 |
| CCCn1c(=O)c2c(nc3[nH]c(C4CCCCC4)cn32)n(Cc2ccccc2)c1=O [Compound 24, 1-Benzyl-7-cyclohexyl-3-propyl-1H-imidazo[1,2-f]purine-2,4(3H,8H)-dione] | 71 | 99 | 6.26 | 130 to 132 | 72 |  |
| CCCn1c(=O)c2c(nc3[nH]c(C)c(C)n32)n(Cc2ccccc2)c1=O [Compound 25, 1-Benzyl-6,7-dimethyl-3-propyl-1H-imidazo[1,2-f]purine-2,4(3H,8H)-dione] | 82 | 92 | 7.44 | 259 | 84 |  |
| CCCn1c(=O)c2c(nc3[nH]c(CC)c(C)n32)n(Cc2ccccc2)c1=O [Compound 26, 1-Benzyl-7-ethyl-6-methyl-3-propyl-1H-imidazo[1,2-f]purine-2,4(3H,8H)-dione] | 73 | 97 | 7.22 | 230 | 80 |  |

From US7435740B2 (King Pharmaceuticals Research and Development, Inc., priority 2005, dated 2008)
